Experimental data from paper PMC9182104 (Molecules, 2022).
Several values for one entry are separate records, joined by “and”; a condition that tells them apart may be missing. Equal entries are not always repeated. Where two headings read alike, the source gives them in different places.

Tests used:
PDE5A = PDE5A (Homo sapiens, UniProt O76074); assay: Enzymatic assay of PDE5A (3H-cGMP substrate); type: biochemical; conditions: for inhibition at 0.1 µM / inhibition at 0.5 µM: 0.25 h; for IC50: PDE5, mean ± SD of three independent experiments
[1] = Rat liver microsomal stability; type: in vitro ADME; conditions: rat liver microsomes, compound 0.5 μM; read-out: T1/2 in RLM
[2] = cited from earlier work
[3] = tested on: fibrosis markers α-SMA and FN; parameters: method as in earlier work; conditions: rat, bleomycin-induced pulmonary fibrosis; cited from earlier work
[4] = PDE5, compound at 0.1 μM, read-out: Inhibition Ratio (%) 0.1 μM
[5] = PDE5, compound at 0.5 μM, read-out: Inhibition Ratio (%) 0.5 μM

## OCCN(CCO)c1nc(N2CCOCC2)c2nc(N(CCO)CCO)nc(N3CCOCC3)c2n1 [4a, 2,2′,2″,2‴-((4,8-dimorpholinopyrimido[5,4-d]pyrimidine-2,6-diyl)bis(azanetriyl))tetrakis(ethan-1-ol)]
PDE5A; [4]
  inhibition at 0.1 µM: 0%
PDE5A; [5]
  inhibition at 0.5 µM: 40%
PDE5A
  IC50: > 500 nM

## OCCN(CCO)c1nc(N2CCSCC2)c2nc(N(CCO)CCO)nc(N3CCSCC3)c2n1 [4b, 2,2′,2″,2‴-((4,8-dithiomorpholinopyrimido[5,4-d]pyrimidine-2,6-diyl)bis(azanetriyl))tetrakis(ethan-1-ol)]
[1]
  half-life at 0.5 μM: 7 min
PDE5A; [4]
  inhibition at 0.1 µM: 53%
PDE5A; [5]
  inhibition at 0.5 µM: 75%
PDE5A
  IC50: 64 nM and 113 nM

## OCCN(CCO)c1nc(N2CCC(F)CC2)c2nc(N(CCO)CCO)nc(N3CCC(F)CC3)c2n1 [4c, 2,2′,2″,2‴-((4,8-bis(4-fluoropiperidin-1-yl)pyrimido[5,4-d]pyrimidine-2,6-diyl)bis(azanetriyl))tetrakis(ethan-1-ol)]
[1]
  half-life at 0.5 μM: 44 min
PDE5A; [4]
  inhibition at 0.1 µM: 31%
PDE5A; [5]
  inhibition at 0.5 µM: 62%
PDE5A
  IC50: 343 ± 18 nM

## OCCN(CCO)c1nc(N2CCC(F)(F)CC2)c2nc(N(CCO)CCO)nc(N3CCC(F)(F)CC3)c2n1 [4d, 2,2′,2″,2‴-((4,8-bis(4,4-difluoropiperidin-1-yl)pyrimido[5,4-d]pyrimidine-2,6-diyl)bis(azanetriyl))tetrakis(ethan-1-ol)]
[1]
  half-life at 0.5 μM: 19 min
PDE5A; [4]
  inhibition at 0.1 µM: 41%
PDE5A; [5]
  inhibition at 0.5 µM: 72%
PDE5A
  IC50: 362 ± 81 nM

## OCCN(CCO)c1nc(N2CCCC2)c2nc(N(CCO)CCO)nc(N3CCCC3)c2n1 [4e, 2,2′,2″,2‴-((4,8-di(pyrrolidin-1-yl)pyrimido[5,4-d]pyrimidine-2,6-diyl)bis(azanetriyl))tetrakis(ethan-1-ol)]
PDE5A; [4]
  inhibition at 0.1 µM: 7%
PDE5A; [5]
  inhibition at 0.5 µM: < 50%

## CC1CCCN1c1nc(N(CCO)CCO)nc2c(N3CCCC3C)nc(N(CCO)CCO)nc12 (stereo not shown) [4f, 2,2′,2″,2‴-((4,8-bis(2-methylpyrrolidin-1-yl)pyrimido[5,4-d]pyrimidine-2,6-diyl)bis(azanetriyl))tetrakis(ethan-1-ol)]
PDE5A; [4]
  inhibition at 0.1 µM: 14%
PDE5A; [5]
  inhibition at 0.5 µM: 60%
PDE5A
  IC50: 478 ± 3 nM

## OCCN(CCO)c1nc(N2CCSC2)c2nc(N(CCO)CCO)nc(N3CCSC3)c2n1 [4g, 2,2′,2″,2‴-((4,8-di(thiazolidin-3-yl)pyrimido[5,4-d]pyrimidine-2,6-diyl)bis(azanetriyl))tetrakis(ethan-1-ol)]
[1]
  half-life at 0.5 μM: 5 min
PDE5A; [4]
  inhibition at 0.1 µM: 60%
PDE5A; [5]
  inhibition at 0.5 µM: 93%
PDE5A
  IC50: 113 nM and 64 nM

## OCCN(CCO)c1nc(N2CCC(F)(F)C2)c2nc(N(CCO)CCO)nc(N3CCC(F)(F)C3)c2n1 [4i, 2,2′,2″,2‴-((4,8-bis(3,3-difluoropyrrolidin-1-yl)pyrimido[5,4-d]pyrimidine-2,6-diyl)bis(azanetriyl))tetrakis(ethan-1-ol)]
PDE5A; [4]
  inhibition at 0.1 µM: 24%
PDE5A; [5]
  inhibition at 0.5 µM: 61%
PDE5A
  IC50: 353 ± 57 nM

## OC1CCN(c2nc(N3CCSC3)c3nc(N4CCC(O)CC4)nc(N4CCSC4)c3n2)CC1 [5a, 1,1′-(4,8-di(thiazolidin-3-yl)pyrimido[5,4-d]pyrimidine-2,6-diyl)bis(piperidin-4-ol)]
PDE5A; [4]
  inhibition at 0.1 µM: 29%
PDE5A; [5]
  inhibition at 0.5 µM: 32%

## OCC1CCCN(c2nc(N3CCSC3)c3nc(N4CCCC(CO)C4)nc(N4CCSC4)c3n2)C1 (stereo not shown) [5b, ((4,8-di(thiazolidin-3-yl)pyrimido[5,4-d]pyrimidine-2,6-diyl)bis(piperidine-1,3-diyl))dimethanol]
PDE5A; [4]
  inhibition at 0.1 µM: 52%
PDE5A; [5]
  inhibition at 0.5 µM: 79%
PDE5A
  IC50: 167 ± 41 nM

## OC1CCCN(c2nc(N3CCC(F)CC3)c3nc(N4CCCC(O)C4)nc(N4CCC(F)CC4)c3n2)C1 (stereo not shown) [6a, 1,1′-(4,8-bis(4-fluoropiperidin-1-yl)pyrimido[5,4-d]pyrimidine-2,6-diyl)bis(piperidin-3-ol)]
PDE5A; [4]
  inhibition at 0.1 µM: 7%
PDE5A; [5]
  inhibition at 0.5 µM: 48%

## OCC1CCCN(c2nc(N3CCC(F)CC3)c3nc(N4CCCC(CO)C4)nc(N4CCC(F)CC4)c3n2)C1 (stereo not shown) [6b, ((4,8-bis(4-fluoropiperidin-1-yl)pyrimido[5,4-d]pyrimidine-2,6-diyl)bis(piperidine-1,3-diyl))dimethanol]
PDE5A; [4]
  inhibition at 0.1 µM: 0%
PDE5A; [5]
  inhibition at 0.5 µM: 7%

## OC1CCN(c2nc(N3CCC(F)CC3)c3nc(N4CCC(O)C4)nc(N4CCC(F)CC4)c3n2)C1 (stereo not shown) [6c, 1,1′-(4,8-bis(4-fluoropiperidin-1-yl)pyrimido[5,4-d]pyrimidine-2,6-diyl)bis(pyrrolidin-3-ol)]
PDE5A; [4]
  inhibition at 0.1 µM: 5%
PDE5A; [5]
  inhibition at 0.5 µM: 20%

## OCCN(CCO)c1nc(N2CCSC2)c2nc(N(CCO)CCO)nc(N3CCSCC3)c2n1 [9a, 2,2′,2″,2‴-((4-(thiazolidin-3-yl)-8-thiomorpholinopyrimido[5,4-d]pyrimidine-2,6-diyl)bis(azanetriyl))tetrakis(ethan-1-ol)]
[1]
  half-life at 0.5 μM: 4 min
PDE5A; [4]
  inhibition at 0.1 µM: 45%
PDE5A; [5]
  inhibition at 0.5 µM: 91%
PDE5A
  IC50: 100 ± 1 nM

## OCCN(CCO)c1nc(N2CC[C@H](F)C2)c2nc(N(CCO)CCO)nc(N3CCSC3)c2n1 [9b, (S)-2,2′,2″,2‴-((4-(3-fluoropyrrolidin-1-yl)-8-(thiazolidin-3-yl)pyrimido[5,4-d]pyrimidine-2,6-diyl)bis(azanetriyl))tetrakis(ethan-1-ol)]
[1]
  half-life at 0.5 μM: 10 min
PDE5A; [4]
  inhibition at 0.1 µM: 33%
PDE5A; [5]
  inhibition at 0.5 µM: 81%
PDE5A
  IC50: 94 ± 9 nM

## C[C@H]1CCCN1c1nc(N(CCO)CCO)nc2c(N3CCC[C@@H]3C)nc(N(CCO)CCO)nc12 [(R)-4f, 2,2′,2″,2‴-((4,8-bis((S)-2-methylpyrrolidin-1-yl)pyrimido[5,4-d]pyrimidine-2,6-diyl)bis(azanetriyl))tetrakis(ethan-1-ol)]
PDE5A; PDE5, compound at 0.1 μM
  Inhibition Ratio (%) 0.1 μM: 27%
PDE5A; PDE5, compound at 0.5 μM
  Inhibition Ratio (%) 0.5 μM: 44%

## OCCN(CCO)c1nc(N2CC[C@@H](F)C2)c2nc(N(CCO)CCO)nc(N3CC[C@@H](F)C3)c2n1 [(R)-4h, 2,2′,2″,2‴-((4,8-bis((R)-3-fluoropyrrolidin-1-yl)pyrimido[5,4-d]pyrimidine-2,6-diyl)bis(azanetriyl))tetrakis(ethan-1-ol)]
PDE5A; [4]
  inhibition at 0.1 µM: 27%
PDE5A; [5]
  inhibition at 0.5 µM: 44%

## OC[C@@H]1CCCN(c2nc(N3CCSC3)c3nc(N4CCC[C@@H](CO)C4)nc(N4CCSC4)c3n2)C1 [(R)-5b, ((3R,3′R)-(4,8-di(thiazolidin-3-yl)pyrimido[5,4-d]pyrimidine-2,6-diyl)bis(piperidine-1,3-diyl))dimethanol]
PDE5A
  IC50: 109 ± 20 nM

## O[C@@H]1CCN(c2nc(N3CCSC3)c3nc(N4CC[C@@H](O)C4)nc(N4CCSC4)c3n2)C1 [(R)-5c, (3R,3′R)-1,1′-(4,8-di(thiazolidin-3-yl)pyrimido[5,4-d]pyrimidine-2,6-diyl)bis(pyrrolidin-3-ol)]
PDE5A; [4]
  inhibition at 0.1 µM: 45%
PDE5A; [5]
  inhibition at 0.5 µM: 74%
PDE5A
  IC50: 198 ± 45 nM

## O[C@@H]1CCCN(c2nc(N3CCC(F)CC3)c3nc(N4CCC[C@@H](O)C4)nc(N4CCC(F)CC4)c3n2)C1 [(R)-6a, (3R,3′R)-1,1′-(4,8-bis(4-fluoropiperidin-1-yl)pyrimido[5,4-d]pyrimidine-2,6-diyl)bis(piperidin-3-ol)]
PDE5A; [4]
  inhibition at 0.1 µM: 8%
PDE5A; [5]
  inhibition at 0.5 µM: 36%

## C[C@H]1CCCN1c1nc(N(CCO)CCO)nc2c(N3CCC[C@@H]3C)nc(N(CCO)CCO)nc12 [(S)-4f, 2,2′,2″,2‴-((4,8-bis((S)-2-methylpyrrolidin-1-yl)pyrimido[5,4-d]pyrimidine-2,6-diyl)bis(azanetriyl))tetrakis(ethan-1-ol)]
PDE5A; [4]
  inhibition at 0.1 µM: 16%
PDE5A; [5]
  inhibition at 0.5 µM: 42%

## OCCN(CCO)c1nc(N2CC[C@H](F)C2)c2nc(N(CCO)CCO)nc(N3CC[C@H](F)C3)c2n1 [(S)-4h, 2,2′,2″,2‴-((4,8-bis((S)-3-fluoropyrrolidin-1-yl)pyrimido[5,4-d]pyrimidine-2,6-diyl)bis(azanetriyl))tetrakis(ethan-1-ol)]
[1]
  half-life at 0.5 μM: 67 min
PDE5A; [4]
  inhibition at 0.1 µM: 34%
PDE5A; [5]
  inhibition at 0.5 µM: 55%
PDE5A
  IC50: 332 ± 56 nM

## OC[C@H]1CCCN(c2nc(N3CCSC3)c3nc(N4CCC[C@H](CO)C4)nc(N4CCSC4)c3n2)C1 [(S)-5b, ((3S,3′S)-(4,8-di(thiazolidin-3-yl)pyrimido[5,4-d]pyrimidine-2,6-diyl)bis(piperidine-1,3-diyl))dimethanol]
PDE5A; [4]
  inhibition at 0.1 µM: 13%
PDE5A; [5]
  inhibition at 0.5 µM: 34%

## O[C@H]1CCN(c2nc(N3CCSC3)c3nc(N4CC[C@H](O)C4)nc(N4CCSC4)c3n2)C1 [(S)-5c, (3S,3′S)-1,1′-(4,8-di(thiazolidin-3-yl)pyrimido[5,4-d]pyrimidine-2,6-diyl)bis(pyrrolidin-3-ol)]
PDE5A; [4]
  inhibition at 0.1 µM: 36%
PDE5A; [5]
  inhibition at 0.5 µM: 49%

## OCCN(CCO)c1nc(N2CCCCC2)c2nc(N(CCO)CCO)nc(N3CCCCC3)c2n1 [DIP, Dipyridamole, reference compound]
[2]
  solubility in water: practically insoluble in water
PDE5A; read-out: Inhibition Ratio (%) 0.1 μM, PDE5, compound at 0.1 μM
  inhibition at 0.1 µM: 17%
PDE5A; read-out: Inhibition Ratio (%) 0.5 μM, PDE5, compound at 0.5 μM
  inhibition at 0.5 µM: 84%
[3]
  levels of fibrosis markers α-SMA and FN: significantly decreased
